Reference: patent publication US11505592B2, “Diagnosis and therapy of multiple sclerosis” (PRINDEX S.R.L., priority 2015, dated 2022)

Columns and labels:
[1] = test system: 5HT2a receptor downstream signaling in MO3-13 cells; assay: Western blotting of proteins downstream of the 5HT2a receptor in MO3-13 cells; type: cell-based, human
Experimental: The same membrane was also incubated with α-Tubulin antibody to show the protein loading.
Western blotting analysis of DUOX1/2 expression levels in MO3-13 cells harvested for 18 h in medium containing 0.2% FBS, preincubated with DDSK (50 uM) for 30 min in serum-free medium and then stimulated for 30 min with IgG (200 μg/ml) purified from serum of Control (IgCtr) or MS (IgMS) patients.
(§1) Western blotting analysis of P-ERK1/2 expression levels in MO3-13 cells harvested for 18 h in medium containing 0.2% FBS, preincubated with DDSK (50 uM) for 30 min in serum-free medium and then stimulated for 30 min with IgG (200 μg/ml) purified from serum of Control (Ig Ctr) or MS (IgMS) patients.
Western blotting analysis of NOX3 expression levels in MO3-13 cells harvested for 18 h in medium containing 0.2% FBS, preincubated with DDSK (50 uM) for 30 min in serum-free medium and then stimulated for30 min with IgG (200 μg/ml) purified from serum of Control (IgCtr) or MS (IgMS) patients.
as §1, with “of H-Ras” for “of P-ERK1/2”, “stimulated for30” for “stimulated for 30”, “patients. The same membrane was incubated with α-Tubulin antibody to show the protein loading.” for “patients.”
Total cells lysates were obtained in RIPA buffer (50 mM Tris-HCl, pH 7.5, NaCl 150 mM, 1% NP40, 0.5% deoxycholate, 0.1% SDS) containing 2.5 mM Na-pyrophosphate, 1 mM β-glycerophosphate, 1 mM NaVO4, 1 mM NaF, 0.5 mM PMSF, and a cocktail of protease inhibitors (Roche, USA). The cells were kept for 15 min at 4° C. and disrupted by repeated aspiration through a 21-gauge needle. Cell lysates were centrifuged for 10 min at 13000 rpm and the pellets were discarded. Fifty micrograms of total proteins were subjected to SDS-PAGE under reducing conditions. […] Membranes were placed in 5% non-fat milk in […], 0.5% Tween 20 (TBST) at 4° C. for 2 h to block the nonspecific binding sites. Filters were incubated with specific antibodies before being washed three times in TBST and then incubated with a peroxidase-conjugated secondary antibody (Santa Cruz). After washing with TBST, peroxidase activity was detected with the ECL system (GE-Healthcare, UK).
The filters were also probed with an anti α-tubulin antibody (Sigma, USA). […] Densitometric values were normalized to α-tubulin.

MS IgG = assay: Indirect ELISA of MS IgG binding to receptor peptides; set-up: species or system human; details: 200 μg immunoglobulins
Experimental: FIG. 6: Dose-response curves of the interaction between MS sera and DDSK peptide. (A) Sera of Multiple Sclerosis patients and Control (control group is defined in material and method below) (200 μg) were incubated with different concentrations (50-100-250 μM) of peptide DDSK. For the detection, inventors used a secondary antibody anti human IgG conjugated with HRP and (3,3′,5,5′-Tetramethylbenzidine) TMB solution that was added for each well and incubated for 15-30 min. Equal volume of stopping solution (2 M H2SO4) was added to the plate and absorbance (optical density) of plate was read at 450 nm. The statistical analysis derived from 9 experiments. Values are mean±SEM. *P<0.05 MS vs CTRL (B) Linear representation of dose-response curve Values are mean±SEM. *P<0.05 MS vs CTRL.
FIGS. 7A, 7B, 7C and 7D: MS sera recognize specially receptor's peptides. […] Equal volume of stopping solution (2 M H2SO4) was added to the plate and absorbance (optical density) of plate was read at 450 nm. […]
A. Sera of Multiple Sclerosis patients and Control (200 μg) were incubated in absence (uncoated) or presence of 100 μM of DDSK peptide. […] Equal volume of stopping solution (2 M H2SO4) was added to the plate and absorbance (optical density) of plate was read at 450 nm. […]
Diluted peptide (20 μg/ml) was coated to the wells of a PVC microtiter plate and incubated at 4° C. overnight. […] For the detection, we used a secondary antibody anti human (recognized constant region of the patient antibody conjugated with HRP and (3,3′,5,5′-Tetramethylbenzidine) TMB solution that was added for each well and incubated for 15-30 min. Equal volume of stopping solution (2 M H2SO4) was added to the plate and absorbance (optical density) of plate was read at 450 nm.
To evaluate the peptide concentration to use for ELISA assay we performed a dose-response curve. […] (named DDSK in the figures) and the absorbance (optical density) of plate was read at 450 nm. […]

[2] = 50 uM peptide 30 min, then IgMS 200 μg/ml 30 min

Sequence: DDSKVFKEGS
- effect of peptide preincubation on IgMS-increased DUOX1/2 protein levels [1, 2]: reverted the effect
- effect of peptide preincubation on IgMS-increased HaRas protein levels [1, 2]: reverted the effect
- effect of peptide preincubation on IgMS-increased NOX3 protein levels [1, 2]: reverted the effect
- effect of peptide preincubation on IgMS-increased P-ERK1/2 protein levels [1, 2]: reverted the effect
- effect of peptide on protein levels (DUOX1/2, P-ERK1/2, NOX3, HaRas) in cells incubated with IgG from control subjects ([1]; 50 uM peptide, IgG control 200 μg/ml): did not significantly modify
- binding of MS IgG to peptide respect to scrambled (MS IgG; 100 μM peptide): bind specifically
- peptide concentration at which MS IgG bind the peptide (MS IgG; dose-response 50-100-250 μM peptide, absorbance 450 nm): higher than 50 μM
